Results from patent US7176313B2, “Anti acid-fast bacterial agent containing pyridonecarboxylic acids as active ingredient” (Daiichi Pharmaceutical Co., Ltd., priority 2000, dated 2007).
Converted amounts (≈) assume the structure as drawn.

These compounds were tested on M. intracellulare (assay: Antibacterial activity (MIC) against M. intracellulare). Details: M. intracellulare N-294; Table 3.
Assay type: cell-based, Mycobacterium intracellulare
Procedure: Antibacterial activity of the compounds of the invention was measured in accordance with the method described in the literature of Antimicrob. Agents and Chemother., 38, 2877 (1994), and the results are shown in Tables 3 to 8 in terms of MIC (μg/ml). In the tables, “OFLX” is an abbreviation of “OFLOXAIN”.

| SMILES | MIC |
| --- | --- |
| O=C(O)c1cn(C2CC2)c2c(Cl)c(N3CC4CCCNC4C3)c(F)cc2c1=O (centres unmarked) [Compd. 1] | 0.39 µg/mL (≈ 0.961 µM) |
| O=C(O)c1cn([C@@H]2C[C@@H]2F)c2c(Cl)c(N3CC4CCCNC4C3)c(F)cc2c1=O (some centres unmarked) [Compd. 2] | 0.39 µg/mL (≈ 0.92 µM) |
| NC1CN(c2c(F)cc3c(=O)c(C(=O)O)cn(C4CC4)c3c2Cl)CC12CC2 (centres unmarked) [Compd. 3] | 1.56 µg/mL (≈ 3.98 µM) |
| NC1CN(c2c(F)cc3c(=O)c(C(=O)O)cn([C@@H]4C[C@@H]4F)c3c2Cl)CC12CC2 (some centres unmarked) [Compd. 4] | 1.56 µg/mL (≈ 3.81 µM) |

Same assay, conditions: M. intracellulare N-313; Table 3

| SMILES | MIC |
| --- | --- |
| O=C(O)c1cn(C2CC2)c2c(Cl)c(N3CC4CCCNC4C3)c(F)cc2c1=O (centres unmarked) [Compd. 1] | 0.10 µg/mL (≈ 0.246 µM) |
| O=C(O)c1cn([C@@H]2C[C@@H]2F)c2c(Cl)c(N3CC4CCCNC4C3)c(F)cc2c1=O (some centres unmarked) [Compd. 2] | 0.20 µg/mL (≈ 0.472 µM) |
| NC1CN(c2c(F)cc3c(=O)c(C(=O)O)cn(C4CC4)c3c2Cl)CC12CC2 (centres unmarked) [Compd. 3] | 0.39 µg/mL (≈ 0.995 µM) |
| NC1CN(c2c(F)cc3c(=O)c(C(=O)O)cn([C@@H]4C[C@@H]4F)c3c2Cl)CC12CC2 (some centres unmarked) [Compd. 4] | 0.39 µg/mL (≈ 0.952 µM) |

Same assay, conditions: M. intracellulare N-338; Table 3

| SMILES | MIC |
| --- | --- |
| O=C(O)c1cn(C2CC2)c2c(Cl)c(N3CC4CCCNC4C3)c(F)cc2c1=O (centres unmarked) [Compd. 1] | 0.39 µg/mL (≈ 0.961 µM) |
| O=C(O)c1cn([C@@H]2C[C@@H]2F)c2c(Cl)c(N3CC4CCCNC4C3)c(F)cc2c1=O (some centres unmarked) [Compd. 2] | 0.39 µg/mL (≈ 0.92 µM) |
| NC1CN(c2c(F)cc3c(=O)c(C(=O)O)cn(C4CC4)c3c2Cl)CC12CC2 (centres unmarked) [Compd. 3] | 1.56 µg/mL (≈ 3.98 µM) |
| NC1CN(c2c(F)cc3c(=O)c(C(=O)O)cn([C@@H]4C[C@@H]4F)c3c2Cl)CC12CC2 (some centres unmarked) [Compd. 4] | 1.56 µg/mL (≈ 3.81 µM) |

Same assay, conditions: M. intracellulare N-345; Table 3

| SMILES | MIC |
| --- | --- |
| O=C(O)c1cn(C2CC2)c2c(Cl)c(N3CC4CCCNC4C3)c(F)cc2c1=O (centres unmarked) [Compd. 1] | 0.39 µg/mL (≈ 0.961 µM) |
| O=C(O)c1cn([C@@H]2C[C@@H]2F)c2c(Cl)c(N3CC4CCCNC4C3)c(F)cc2c1=O (some centres unmarked) [Compd. 2] | 0.78 µg/mL (≈ 1.84 µM) |
| NC1CN(c2c(F)cc3c(=O)c(C(=O)O)cn(C4CC4)c3c2Cl)CC12CC2 (centres unmarked) [Compd. 3] | 1.56 µg/mL (≈ 3.98 µM) |
| NC1CN(c2c(F)cc3c(=O)c(C(=O)O)cn([C@@H]4C[C@@H]4F)c3c2Cl)CC12CC2 (some centres unmarked) [Compd. 4] | 3.13 µg/mL (≈ 7.64 µM) |

The compounds below were run on Mycobacterium tuberculosis (RFP sensitive) (assay: Antibacterial activity (MIC) against Mycobacterium tuberculosis (RFP sensitive)). Details: M. tuberculosis H37Rv; Table 5.
Assay type: cell-based

| SMILES | MIC |
| --- | --- |
| O=C(O)c1cn(C2CC2)c2c(Cl)c(N3CC4CCCNC4C3)c(F)cc2c1=O (centres unmarked) [Compd. 1] | 0.025 µg/mL (≈ 0.0616 µM) |
| O=C(O)c1cn([C@@H]2C[C@@H]2F)c2c(Cl)c(N3CC4CCCNC4C3)c(F)cc2c1=O (some centres unmarked) [Compd. 2] | 0.025 µg/mL (≈ 0.059 µM) |
| NC1CN(c2c(F)cc3c(=O)c(C(=O)O)cn(C4CC4)c3c2Cl)CC12CC2 (centres unmarked) [Compd. 3] | 0.10 µg/mL (≈ 0.255 µM) |
| NC1CN(c2c(F)cc3c(=O)c(C(=O)O)cn([C@@H]4C[C@@H]4F)c3c2Cl)CC12CC2 (some centres unmarked) [Compd. 4] | 0.025 µg/mL (≈ 0.061 µM) |

Same assay, conditions: M. tuberculosis Kurono; Table 5

| SMILES | MIC |
| --- | --- |
| O=C(O)c1cn(C2CC2)c2c(Cl)c(N3CC4CCCNC4C3)c(F)cc2c1=O (centres unmarked) [Compd. 1] | 0.013 µg/mL (≈ 0.032 µM) |
| O=C(O)c1cn([C@@H]2C[C@@H]2F)c2c(Cl)c(N3CC4CCCNC4C3)c(F)cc2c1=O (some centres unmarked) [Compd. 2] | 0.013 µg/mL (≈ 0.0307 µM) |
| NC1CN(c2c(F)cc3c(=O)c(C(=O)O)cn(C4CC4)c3c2Cl)CC12CC2 (centres unmarked) [Compd. 3] | 0.05 µg/mL (≈ 0.128 µM) |
| NC1CN(c2c(F)cc3c(=O)c(C(=O)O)cn([C@@H]4C[C@@H]4F)c3c2Cl)CC12CC2 (some centres unmarked) [Compd. 4] | 0.013 µg/mL (≈ 0.0317 µM) |

Same assay, conditions: M. tuberculosis No. 40; Table 5

| SMILES | MIC |
| --- | --- |
| O=C(O)c1cn(C2CC2)c2c(Cl)c(N3CC4CCCNC4C3)c(F)cc2c1=O (centres unmarked) [Compd. 1] | 0.025 µg/mL (≈ 0.0616 µM) |
| O=C(O)c1cn([C@@H]2C[C@@H]2F)c2c(Cl)c(N3CC4CCCNC4C3)c(F)cc2c1=O (some centres unmarked) [Compd. 2] | 0.025 µg/mL (≈ 0.059 µM) |
| NC1CN(c2c(F)cc3c(=O)c(C(=O)O)cn(C4CC4)c3c2Cl)CC12CC2 (centres unmarked) [Compd. 3] | 0.10 µg/mL (≈ 0.255 µM) |
| NC1CN(c2c(F)cc3c(=O)c(C(=O)O)cn([C@@H]4C[C@@H]4F)c3c2Cl)CC12CC2 (some centres unmarked) [Compd. 4] | 0.025 µg/mL (≈ 0.061 µM) |

Same assay, conditions: M. tuberculosis No. 41; Table 5

| SMILES | MIC |
| --- | --- |
| O=C(O)c1cn(C2CC2)c2c(Cl)c(N3CC4CCCNC4C3)c(F)cc2c1=O (centres unmarked) [Compd. 1] | <0.003 µg/mL |
| O=C(O)c1cn([C@@H]2C[C@@H]2F)c2c(Cl)c(N3CC4CCCNC4C3)c(F)cc2c1=O (some centres unmarked) [Compd. 2] | 0.006 µg/mL (≈ 0.0142 µM) |
| NC1CN(c2c(F)cc3c(=O)c(C(=O)O)cn(C4CC4)c3c2Cl)CC12CC2 (centres unmarked) [Compd. 3] | 0.006 µg/mL (≈ 0.0153 µM) |
| NC1CN(c2c(F)cc3c(=O)c(C(=O)O)cn([C@@H]4C[C@@H]4F)c3c2Cl)CC12CC2 (some centres unmarked) [Compd. 4] | <0.003 µg/mL |

Same assay, conditions: M. tuberculosis No. 43; Table 5

| SMILES | MIC |
| --- | --- |
| O=C(O)c1cn(C2CC2)c2c(Cl)c(N3CC4CCCNC4C3)c(F)cc2c1=O (centres unmarked) [Compd. 1] | 0.20 µg/mL (≈ 0.493 µM) |
| O=C(O)c1cn([C@@H]2C[C@@H]2F)c2c(Cl)c(N3CC4CCCNC4C3)c(F)cc2c1=O (some centres unmarked) [Compd. 2] | 0.10 µg/mL (≈ 0.236 µM) |
| NC1CN(c2c(F)cc3c(=O)c(C(=O)O)cn(C4CC4)c3c2Cl)CC12CC2 (centres unmarked) [Compd. 3] | 0.78 µg/mL (≈ 1.99 µM) |
| NC1CN(c2c(F)cc3c(=O)c(C(=O)O)cn([C@@H]4C[C@@H]4F)c3c2Cl)CC12CC2 (some centres unmarked) [Compd. 4] | 0.20 µg/mL (≈ 0.488 µM) |

Same assay, conditions: M. tuberculosis No. 68; Table 5

| SMILES | MIC |
| --- | --- |
| O=C(O)c1cn(C2CC2)c2c(Cl)c(N3CC4CCCNC4C3)c(F)cc2c1=O (centres unmarked) [Compd. 1] | 0.025 µg/mL (≈ 0.0616 µM) |
| O=C(O)c1cn([C@@H]2C[C@@H]2F)c2c(Cl)c(N3CC4CCCNC4C3)c(F)cc2c1=O (some centres unmarked) [Compd. 2] | 0.025 µg/mL (≈ 0.059 µM) |
| NC1CN(c2c(F)cc3c(=O)c(C(=O)O)cn(C4CC4)c3c2Cl)CC12CC2 (centres unmarked) [Compd. 3] | 0.10 µg/mL (≈ 0.255 µM) |
| NC1CN(c2c(F)cc3c(=O)c(C(=O)O)cn([C@@H]4C[C@@H]4F)c3c2Cl)CC12CC2 (some centres unmarked) [Compd. 4] | 0.025 µg/mL (≈ 0.061 µM) |

These compounds were tested on M. avium (assay: Antibacterial activity (MIC) against M. avium). Details: M. avium N-357; Table 3.
Assay type: cell-based, Mycobacterium avium
Procedure: Antibacterial activity of the compounds of the invention was measured in accordance with the method described in the literature of Antimicrob. […] In the tables, “OFLX” is an abbreviation of “OFLOXAIN”.

| SMILES | MIC |
| --- | --- |
| O=C(O)c1cn(C2CC2)c2c(Cl)c(N3CC4CCCNC4C3)c(F)cc2c1=O (centres unmarked) [Compd. 1] | 0.10 µg/mL (≈ 0.246 µM) |
| O=C(O)c1cn([C@@H]2C[C@@H]2F)c2c(Cl)c(N3CC4CCCNC4C3)c(F)cc2c1=O (some centres unmarked) [Compd. 2] | 0.20 µg/mL (≈ 0.472 µM) |
| NC1CN(c2c(F)cc3c(=O)c(C(=O)O)cn(C4CC4)c3c2Cl)CC12CC2 (centres unmarked) [Compd. 3] | 0.39 µg/mL (≈ 0.995 µM) |
| NC1CN(c2c(F)cc3c(=O)c(C(=O)O)cn([C@@H]4C[C@@H]4F)c3c2Cl)CC12CC2 (some centres unmarked) [Compd. 4] | 0.20 µg/mL (≈ 0.488 µM) |

Same assay, conditions: M. avium N-444; Table 3

| SMILES | MIC |
| --- | --- |
| O=C(O)c1cn(C2CC2)c2c(Cl)c(N3CC4CCCNC4C3)c(F)cc2c1=O (centres unmarked) [Compd. 1] | 0.20 µg/mL (≈ 0.493 µM) |
| O=C(O)c1cn([C@@H]2C[C@@H]2F)c2c(Cl)c(N3CC4CCCNC4C3)c(F)cc2c1=O (some centres unmarked) [Compd. 2] | 0.39 µg/mL (≈ 0.92 µM) |
| NC1CN(c2c(F)cc3c(=O)c(C(=O)O)cn(C4CC4)c3c2Cl)CC12CC2 (centres unmarked) [Compd. 3] | 1.56 µg/mL (≈ 3.98 µM) |
| NC1CN(c2c(F)cc3c(=O)c(C(=O)O)cn([C@@H]4C[C@@H]4F)c3c2Cl)CC12CC2 (some centres unmarked) [Compd. 4] | 0.78 µg/mL (≈ 1.9 µM) |

Same assay, conditions: M. avium N-458; Table 3

| SMILES | MIC |
| --- | --- |
| O=C(O)c1cn(C2CC2)c2c(Cl)c(N3CC4CCCNC4C3)c(F)cc2c1=O (centres unmarked) [Compd. 1] | 0.20 µg/mL (≈ 0.493 µM) |
| O=C(O)c1cn([C@@H]2C[C@@H]2F)c2c(Cl)c(N3CC4CCCNC4C3)c(F)cc2c1=O (some centres unmarked) [Compd. 2] | 0.20 µg/mL (≈ 0.472 µM) |
| NC1CN(c2c(F)cc3c(=O)c(C(=O)O)cn(C4CC4)c3c2Cl)CC12CC2 (centres unmarked) [Compd. 3] | 0.78 µg/mL (≈ 1.99 µM) |
| NC1CN(c2c(F)cc3c(=O)c(C(=O)O)cn([C@@H]4C[C@@H]4F)c3c2Cl)CC12CC2 (some centres unmarked) [Compd. 4] | 0.39 µg/mL (≈ 0.952 µM) |

Same assay, conditions: M. avium N-472; Table 3

| SMILES | MIC |
| --- | --- |
| O=C(O)c1cn(C2CC2)c2c(Cl)c(N3CC4CCCNC4C3)c(F)cc2c1=O (centres unmarked) [Compd. 1] | 1.56 µg/mL (≈ 3.84 µM) |
| O=C(O)c1cn([C@@H]2C[C@@H]2F)c2c(Cl)c(N3CC4CCCNC4C3)c(F)cc2c1=O (some centres unmarked) [Compd. 2] | 0.78 µg/mL (≈ 1.84 µM) |
| NC1CN(c2c(F)cc3c(=O)c(C(=O)O)cn(C4CC4)c3c2Cl)CC12CC2 (centres unmarked) [Compd. 3] | 6.25 µg/mL (≈ 16 µM) |
| NC1CN(c2c(F)cc3c(=O)c(C(=O)O)cn([C@@H]4C[C@@H]4F)c3c2Cl)CC12CC2 (some centres unmarked) [Compd. 4] | 1.56 µg/mL (≈ 3.81 µM) |
